Reference: US9932543B2, “Bacterial spore compositions for industrial uses” (priority 2014, dated 2018)
Bridge positions count the residues as written; N and C are the ends. Square brackets hold non-standard residues; d marks the D form. Peptide text beside a SMILES is read from it. * marks the point of attachment. Ileψ(thiazoline)Cys = CC[C@H](C)[C@H](N)C1=N[C@H](C(=O)*)CS1; dOrn = NCCC[C@@H](N)C(=O)O

Tested on: Eimeria maxima and Clostridium perfringens
Format: in vivo, Cobb 500 Chicks (Gallus gallus domesticus)
Settings: infected chickens

CC[C@H](C)[C@H](N)C1=N[C@H](C(=O)N[C@@H](CC(C)C)C(=O)N[C@H](CCC(=O)O)C(=O)N[C@H](C(=O)N[C@H]2CCCCNC(=O)[C@H](CC(N)=O)NC(=O)[C@@H](CC(=O)O)NC(=O)[C@H](Cc3cnc[nH]3)NC(=O)[C@@H](Cc3ccccc3)NC(=O)[C@H]([C@@H](C)CC)NC(=O)[C@@H](CCCN)NC2=O)[C@@H](C)CC)CS1 [Treatment Group 5, Bacitracin] ({Ileψ(thiazoline)Cys}-L[dE]IK[dOrn]I[dF]H[dD]N; lactam 4-C)
Weight Gain Day 0-28: 0.811a kg
Weight gain over the infected negative control (Day 0-28): significant increase in weight gain
Mortality (Day 28): 3.1b %
Lesion Score (0-3) (Day 28, 0 normal, 3 most severe): 0.5b
Feed Conversion Day 0-28 (kg of food per kg of body weight): 1.585c
